Experimental data published in patent publication US20150045391A1, “FILANESIB COMBINED WITH POMALIDOMIDE DISPLAYS ENHANCED ANTI-TUMOR ACTIVITY” (Array BioPharma Inc., priority 2013, published 2015).

Assays:
[1] = Plasma exposure after a single IP dose of filanesib and/or pomalidomide (Example 1); format: in vivo; settings: mouse, male CD-1 mice
Experimental: Naïve male CD-1 mice were administered a single intraperitoneal (“IP”) bolus dose of filanesib (12.5 mg/kg) and/or pomalidomide (10 mg/kg). Blood was collected at 4, 8, 12, 16, 20 and 24 hours via cardiac puncture, ethylenediaminetetraacetic acid (“EDTA”) plasma was prepared, and concentration of plasma analytes were measured.

[2] = tested on: JJN3 xenografts; assay: JJN3 xenograft tumor growth inhibition (Example 2); format: in vivo, mice; settings: for % Complete Response: SCID-beige mice, filanesib 12.5 mg/kg IP days 1 and 2, pomalidomide 10 mg/kg IP QD days 1-19, no palpable tumor for 2 consecutive measurements; for % Max Body Weight Loss: filanesib 12.5 mg/kg IP days 1 and 2, pomalidomide 10 mg/kg IP QD days 1-19
Experimental: (§1) Female SCID-beige mice were inoculated subcutaneously with 10×10^6 H929 (FIG. 2), RPMI-8226 (FIG. 3) or JJN3 (FIG. 4) tumor cells in 50% 1× phosphate buffered saline (“PBS”) 50% Matrigel™ (100 μL). […] Tumor size and animal body weight were measured on the days indicated in FIGS. 2-4 over the course of each study. Tumor volume was calculated using the formula, volume=[…]. Percent complete response indicates an animal has no palapable tumor for 2 consecutive measurements.

[3] = tested on: H929 xenografts; assay: H929 xenograft tumor growth inhibition (Example 2); format: in vivo, mice; settings: for % Complete Response: SCID-beige mice, filanesib 12.5 mg/kg IP days 1 and 2, pomalidomide 10 mg/kg IP QD days 1-21, no palpable tumor for 2 consecutive measurements; for % Max Body Weight Loss: filanesib 12.5 mg/kg IP days 1 and 2, pomalidomide 10 mg/kg IP QD days 1-21
Experimental: as §1

[4] = tested on: RPMI-8226 xenografts; assay: RPMI-8226 dose ranging xenograft (Example 4); format: in vivo, mice; settings: for % Cure Rate: no palpable tumor 158 days from study start
Experimental: Female SCID-Beige mice were inoculated subcutaneously with 10×10^6 RPMI-8226 tumor cells in 50% 1×PBS 50% Matrigel™ (100 μL). […] Tumor size and animal body weight were measured on the indicated days over the course of each study. Tumor volume was calculated using the formula, volume=[…]. Percent cure rate indicates an animal has no palpable tumor 158 days from study start.

[5] = Hematology profiles and body weight in naive CD-1 mice (Example 3); format: in vivo; settings: for neutropenia / neutrophil loss, in words: hematology analysis in mice
Experimental: Naïve male CD-1 mice were administered saline vehicle (10 mL/kg, IP, days 1 and 2), filanesib (12.5 mg/kg, IP, days 1 and 2) and/or pomalidomide (1 or 10 mg/kg, IP, QD, days 1-14). Hematology parameters (platelets FIG. 5, lymphocytes FIG. 6, neutrophils FIG. 7) were measured on days 5 and 12, and animal body weight (FIG. 8) was measured on days 1, 3, 5, 8, 10 and 12. For hematology analysis, blood was collected 12 hours following the final dose via cardiac puncture, […] was prepared, and hematology profiles were measured on Hemavet 950FS analyzer.

[6] = Predicted in vitro IC50 of filanesib
[7] = Dose limiting toxicity of filanesib; settings: in vivo
[8] = tested on: RPMI-8226 xenografts; assay: RPMI-8226 xenograft tumor growth inhibition (Example 2); format: in vivo, mice; settings: for % Complete Response / % Max Body Weight Loss: RPMI-8226, filanesib 12.5 mg/kg IP days 1 and 2, pomalidomide 10 mg/kg IP QD days 1-21; for % Complete Response: SCID-beige mice, no palpable tumor for 2 consecutive measurements; for cure rate: RPMI-8226 model, filanesib 12.5 mg/kg IP D1, 2, pomalidomide 10 mg/kg IP QD, cure = no palpable tumor 100 days from study initiation
Experimental: as §1

[9] = filanesib in plasma, single IP bolus filanesib 12.5 mg/kg alone or with pomalidomide 10 mg/kg
[10] = filanesib 7.5 mg/kg IP days 1 and 2 and/or pomalidomide 5 mg/kg IP QD days 1-21
[11] = filanesib 12.5 mg/kg IP days 1 and 2 and/or pomalidomide 10 mg/kg IP QD days 1-21
[12] = Day 5, filanesib 12.5 mg/kg IP days 1 and 2 and/or pomalidomide 1 mg/kg IP QD days 1-14
[13] = Day 12, filanesib 12.5 mg/kg IP days 1 and 2 and/or pomalidomide 1 mg/kg IP QD days 1-14
[14] = filanesib 12.5 mg/kg IP days 1 and 2 and/or pomalidomide 1 mg/kg IP QD days 1-14
[15] = pomalidomide in plasma, single IP bolus pomalidomide 10 mg/kg alone or with filanesib 12.5 mg/kg
[16] = Day 5, pomalidomide 10 mg/kg IP QD days 1-14, alone or with filanesib 12.5 mg/kg IP days 1 and 2
[17] = Day 12, pomalidomide 10 mg/kg IP QD days 1-14, alone or with filanesib 12.5 mg/kg IP days 1 and 2

CON(C)C(=O)N1N=C(c2cc(F)ccc2F)S[C@@]1(CCCN)c1ccccc1.Cl [filanesib, (S)-2-(3-aminopropyl)-5-(2,5-difluorophenyl)-N-methoxy-N-methyl-2-phenyl-1,3,4-thiadiazole-3(2H)-carboxamide hydrochloride]
AUC(0-t) [1, 9]: 3090 ng·h/mL | Cmax [1, 9]: 1660 ng/mL | Tmax [1, 9]: 4.98 min | % Complete Response [2]: 0% | % Max Body Weight Loss [2]: 6.6% | % Complete Response [3]: 0% | % Max Body Weight Loss [3]: 8.9% | % Max Body Weight Loss [4, 10]: 3.7% | % Cure Rate [4, 10]: 0% | % Max Body Weight Loss [4, 11]: 8.0% | % Cure Rate [4, 11]: 0% | % Decrease in Cell Counts from Vehicle, Lymphocytes [5, 12]: 34% | % Decrease in Cell Counts from Vehicle, Neutrophils [5, 12]: 69% | % Decrease in Cell Counts from Vehicle, Platelets [5, 12]: 9% | % Decrease in Cell Counts from Vehicle, Lymphocytes [5, 13]: 0% | % Decrease in Cell Counts from Vehicle, Neutrophils [5, 13]: 0% | % Decrease in Cell Counts from Vehicle, Platelets [5, 13]: 0% | % Max Body Weight Loss [5, 14]: 0% | neutropenia / neutrophil loss, in words [5]: caused neutropenia | predicted in vitro IC50 [6]: about 0.2 ng/mL | major dose limiting toxicity (DLT) [7]: neutropenia | % Complete Response [8]: 50% | % Max Body Weight Loss [8]: 5.3% | cure rate [8]: 0%

Nc1cccc2c1C(=O)N(C1CCC(=O)NC1=O)C2=O (centres unmarked) [pomalidomide]
AUC(0-t) [1, 15]: 3080 ng·h/mL | Cmax [1, 15]: 956 ng/mL | Tmax [1, 15]: 4.98 min | % Complete Response [2]: 0% | % Max Body Weight Loss [2]: 0% | % Complete Response [3]: 28.5% | % Max Body Weight Loss [3]: 4.4% | % Max Body Weight Loss [4, 10]: 0.5% | % Cure Rate [4, 10]: 0% | % Max Body Weight Loss [4, 11]: 1.4% | % Cure Rate [4, 11]: 0% | % Decrease in Cell Counts from Vehicle, Lymphocytes [5, 12]: 9% | % Decrease in Cell Counts from Vehicle, Neutrophils [5, 12]: 27% | % Decrease in Cell Counts from Vehicle, Platelets [5, 12]: 8% | % Decrease in Cell Counts from Vehicle, Lymphocytes [5, 16]: 4% | % Decrease in Cell Counts from Vehicle, Neutrophils [5, 16]: 21% | % Decrease in Cell Counts from Vehicle, Platelets [5, 16]: 10% | % Decrease in Cell Counts from Vehicle, Lymphocytes [5, 13]: 0% | % Decrease in Cell Counts from Vehicle, Neutrophils [5, 13]: 0% | % Decrease in Cell Counts from Vehicle, Platelets [5, 13]: 0% | % Decrease in Cell Counts from Vehicle, Lymphocytes [5, 17]: 0% | % Decrease in Cell Counts from Vehicle, Neutrophils [5, 17]: 0% | % Decrease in Cell Counts from Vehicle, Platelets [5, 17]: 0% | % Max Body Weight Loss [5, 14]: 0% | neutropenia / neutrophil loss, in words [5]: caused neutropenia | % Max Body Weight Loss ([5]; pomalidomide 10 mg/kg IP QD days 1-14, alone or with filanesib 12.5 mg/kg IP days 1 and 2): 0% | % Complete Response [8]: 12.5% | % Max Body Weight Loss [8]: 0.9% | cure rate [8]: 0%
